Laboratory results reported in patent publication US20260240826A1, “COMPOSITIONS FOR PD-L1 INHIBITION AND METHODS OF USE THEREOF” (ARIZONA BOARD OF REGENTS ON BEHALF OF THE UNIVERSITY OF …, priority 2023, published 2026).

How the values were obtained:
[1] = system: Il1β, Il6, Il10, Tnfα, Ptgs2, Tlr4 expression in SKH-1 mouse skin; assay: RT-qPCR of SSL-induced inflammatory genes in SKH-1 mouse skin; format: in vivo; conditions: 8 mM BMS-202+SSL vs vehicle+SSL; 24 hr
Experimental: (§1) UVB exposure was performed on AP-1 luciferase reporter mice on the SKH-1 genetic background at a dose of 2.75 kJ/m2 using FS40 bulbs (Q-Lab Corporation) as described before with the modification that mice were imaged 24 hr post UVB exposure using whole body bioluminescence instead of 48 hr post UVB using ear punches. SSL irradiation of SKH-1 mice (Charles River Laboratories, strain code 477) at a dose of 90 kJ/m2 UVA/6 kJ/m2 UVB was performed using UVA-340 bulbs (Q-Lab Corporation) as described before.
Total RNA was isolated from SSL-treated mouse skin using the Qiagen RNeasy Mini Kit (Qiagen) according to the manufacturer's protocol. RNA integrity was checked by the RNA 6000 Nano chip kit using Agilent 2100 Bioanalyzer (Agilent Technologies). […] Then, 10 ng of cDNA was used for amplification of target genes by quantitative PCR using the following conditions: 95° C. for 10 min followed by 95° C. for 15 sec and 60° C. for 1 min for a total of 40 cycles performed in the ABI7500 Real-Time PCR System (Applied Biosystems). […] After amplification plots were generated, the Ct values (cycle number at which fluorescence reaches threshold) were recorded and quantified using the comparative (ΔΔCt) Ct method as described in the ABI Prism 7500 sequence detection system user guide. Statistical significance was calculated employing the Student's two-tailed t-test.

PD-L1 = PD-L1 immunohistochemistry of SKH-1 mouse skin; format: in vivo; conditions: topical 8 mM pre/post; 24 hr post SSL
Experimental: as §1
PD-L1: IHC staining for PD-L1 in mouse skins was performed using the NBP1-43262 antibody (Novus). Epidermal PD-L1 expression is shown as percent staining determined by ImageJ (NIH, open source) quantification using color deconvolution of the brown stain with a uniform threshold between all samples. Each skin sample (n=3, 20× field) was used to measure at least 3 fields per specimen with the exclusion of hair follicles, if present.
Mouse IHC data were analyzed using Kruskal-Wallis non-parametric data analysis (GraphPad Prism 10.0 software). IHC images shown are magnified according to the 100 μm scale bar contained in the respective panel as specified throughout the figure legends.

## COc1nc(OCc2cccc(-c3ccccc3)c2C)ccc1CNCCNC(C)=O [BMS-202]
[1]
  UV-induced expression of Il1β, Il6, Il10, Tnfα, Ptgs2, Tlr4 (RT-qPCR): strong downregulation
PD-L1
  epidermal PD-L1 staining (IHC): pronounced inhibition
